# Patent US20090214544A1, “Method of treating cd30 positive lymphomas” (MEDAREX, priority 2005, published 2009)
# B1: 5F11: fully human anti-CD30 monoclonal antibody; VH SEQ ID NO: 10, VL SEQ ID NO: 12; VH 4-34 and VK L15 (antibody, chains of the INN, looked up, V domains shown)
# VH: QVQLQQWGAGLLKPSETLSLTCAVYGGSFSAYYWSWIRQPPGKGLEWIGDINHGGGTNYNPSLKSRVTISVDTSKNQFSLKLNSVTAADTAVYYCASLTAYWGQGSLVTVSS
# VL: DIQMTQSPTSLSASVGDRVTITCRASQGISSWLTWYQQKPEKAPKSLIYAASSLQSGVPSRFSGSGSGTDFTLTISSLQPEDFATYYCQQYDSYPITFGQGTRLEIK
# notes: fully human anti-CD30 monoclonal antibody; VH 4-34 and VK L15
# Legend:
# [1] = guidance for hydrocortisone equivalents; actual potency may vary slightly; cited from earlier work
# [2] = system: Hodgkin's Disease (HD), CD30 positive lymphoma; assay: Combination therapy of anti-CD30 antibody and glucocorticosteroid in patients with Hodgkin's Disease; type: in vivo, human
# Experimental: The patient, diagnosed with HD, received 5 mg/kg anti-CD30 antibody 5F11 by i.v. infusion once per day per week for 3 weeks. The week after completing antibody therapy (i.e., fourth week from start of therapy), the patient received 40 mg oral dexamethasone once per day for 2 days; one month later the patient received another 40 mg oral dexamethasone once per day for 4 days; two weeks later the patient received a third regimen of 40 mg oral dexamethasone once per day for 4 days.
# Patient 2, diagnosed with HD, received 15 mg/kg anti-CD30 antibody 5F11 by i.v. infusion once per day per week for 3 weeks. At the start of week 3 of antibody therapy, the patient received one dose of 50 mg oral dexamethasone. After completion of antibody therapy (i.e., at the beginning of week four following the start of therapy), the patient received one dose of 100 mg oral prednisolone.
# Patient 4, diagnosed with HD, received 1 mg/kg anti-CD30 antibody […] by i.v. infusion once per day per week for 3 weeks. On the second day of week 1 after beginning therapy, the patient received 40 mg oral dexamethasone once per day for 4 days, followed by no steroid therapy for 10 days. Thus, a dexamethasone cycle was completed over a 14 day period. For this patient, 8 cycles of dexamethasone therapy were completed over a period of 4 months.
# [3] = system: T cell lymphoma, CD30 positive lymphoma; assay: Combination therapy of anti-CD30 antibody and glucocorticosteroid in a patient with T cell lymphoma; type: in vivo, human; conditions: Patient 3, T cell lymphoma; 40 mg oral dexamethasone daily for 4 days, then 50 mg oral prednisolone daily for 20 days; 15 mg/kg 5F11 i.v. once per week for 3 weeks from second week
# Experimental: Patient 3, diagnosed with T cell lymphoma, received 40 mg oral dexamethasone once per day for 4 days. On day 5, dexamethasone treatment ceased and 50 mg oral prednisolone was administered once per day for 20 days. At the beginning of the second week of steroid therapy, antibody therapy was initiated by administering 15 mg/kg anti-CD30 antibody 5F11 by i.v. infusion once per day per week for 3 weeks.
# [4] = system: ALCL and various HD-derived cell lines; conditions: in vitro and in vivo; Borchmann et al., Blood 2003; cited from earlier work
Molecule,Relative potency in mg to hydrocortisone [1],further results
C[C@]12CCC(=O)C=C1CC[C@@H]1[C@@H]2C(=O)C[C@@]2(C)[C@H]1CC[C@]2(O)C(=O)CO [Cortisone],0.8,
C[C@]12CCC(=O)C=C1CC[C@@H]1[C@@H]2[C@@H](O)C[C@@]2(C)[C@H]1CC[C@]2(O)C(=O)CO [Cortisol],1.25,
C[C@]12C=CC(=O)C=C1CC[C@@H]1[C@@H]2[C@@H](O)C[C@@]2(C)[C@H]1CC[C@]2(O)C(=O)CO [Prednisolone],4,
C[C@]12C=CC(=O)C=C1CC[C@H]1[C@@H]3C[C@@H](O)[C@](O)(C(=O)CO)[C@@]3(C)C[C@H](O)[C@@]12F [Triamcinolone],5,
C[C@]12CCC(=O)C=C1CC[C@@H]1[C@@H]2[C@@H](O)C[C@@]2(C)[C@H]1CC[C@]2(O)C(=O)CO [Hydrocortisone],1,
B1,,"clinical response ([2]; Patient 1, HD, 5 mg/kg 5F11 i.v. once per week for 3 weeks, then 40 mg oral dexamethasone once per day for 2 days, 4 days and 4 days (three regimens)): partial response; clinical response ([2]; Patient 2, HD, 15 mg/kg 5F11 i.v. once per week for 3 weeks, one dose 50 mg oral dexamethasone at week 3, one dose 100 mg oral prednisolone at week 4): partial response, which improved to complete a response; clinical response ([2]; Patient 4, HD, 1 mg/kg antibody i.v. once per week for 3 weeks, 8 cycles of 40 mg oral dexamethasone daily for 4 days per 14 days over 4 months): partial response; clinical response [3]: complete response; efficacy against ALCL and various HD-derived cell lines [4]: shown efficacy"
